Test results published in patent US20260115202A1, “TOPICAL COMPOSITIONS COMPRISING AN ESTETROL COMPONENT AND USE OF SAID COMPOSITIONS FOR WOUND HEALING” (NEURALIS SA, priority 2022, published 2026).
Entries after “also recorded” stand apart in the source; their conditions may differ.

What was measured:
[1] = test system: human dermal fibroblasts (HDF); experiment: Scratch wound assay, human dermal fibroblasts; type: cell-based; settings: for concentration of optimal stimulation of fibroblast scratch wound closure / scratch closure compared to vehicle control: HDF; for scratch closure: HDF fifth donor, 24 hours, DMEM with 2% CS-FBS, 0% FBS or 2% FBS; for scratch closure compared to vehicle control: 36 hours
Excerpt: Primary human dermal fibroblasts (HDF) were isolated from abdominal skin or leg skin. Primary neonatal normal human epidermal keratinocytes (NHEK) were purchased (Lonza). Murine dermal fibroblasts (MDF), murine epidermal keratinocytes (MEK), murine peritoneal macrophages and murine bone marrow were isolated from C57/B16 (wt). NDb (Lepr+/-) or Db (Lepr-/-) mice. Fibroblasts were isolated and cultured in DMEM supplemented with 10% heat inactivated FBS. 1% penicillin/streptomycin and 1% amphotericin B. At least 4 days prior to performing assays cells were switched to DMEM supplemented with 5% charcoal-stripped FBS. Cells were seeded into 24 well plates and cultured to form a confluent monolayer, and then scratched with a 1 ml pipette tip. Wells were treated with E2, E4 and/or various estrogen receptor agonists and antagonists. […] A vehicle control containing the equivalent concentration of EtOH and/or DMSO was included, in addition to an untreated negative control. All treatments were diluted to working concentrations in media supplemented with 2% charcoal-stripped FBS. To visualise scratches at the defined endpoint, cells were stained with crystal violet and imaged on a Nikon E400 brightfield microscope. Scratch closure was determined from multiple independent measurements per well. Scratch assays were performed to quantify the effect of E2 and E4 at varying concentrations on HDF migration (FIG. 14). […] 10^-7M and 10^-6M (152%. 147% and 142% respectively). Thus, both E2 and E4 optimally stimulated fibroblast scratch wound closure at 10^-8M, with the higher magnitude of stimulation observed following E2 treatment. Next, an additional experiment was performed using HDF to a) further confirm the effects of E2 and E4 in fibroblasts from a fifth donor and b) explore the relative effect of including CS-FBS in the cell culture media. Three identical sets of scratch assays were performed (comparing vehicle to E2 or E4 treatment at 10^-7M) in DMEM containing either 2% CS-FBS. 0% FBS or 2% FBS (not CS).

[2] = test system: Female wild-type (C57BL/6J) 8 weeks old mice; experiment: In vivo LPS-induced delayed wound healing model: uterine weight and morphology; settings: topical, 60 μl on days -1 to 4, LPS mice, assessed at day 5
Excerpt: The in vivo LPS-induced delayed wound healing model was reproduced as previously described (Crompton R, Williams H, Ansell D, Campbell L, Holden K, Cruickshank S, Hardman M J. Oestrogen promotes healing in a bacterial LPS model of delayed cutaneous wound repair. Lab Invest. 2016 April, 96 (4): 439-49).
Female wild-type (C57BL/6J) 8 weeks old mice were split into six groups (6 animals per experimental group): • Double placebo control (no LPS, placebo treatment), • LPS control (LPS, placebo treatment), • LPS with topical EstroGel (estradiol gel, contains 0.06% 17β-estradiol as hemihydrate in a hydro-alcoholic gel), • LPS with topical AG24 (E4 at 0.5%), • LPS with topical AG25 (E4 at 0.22%), • LPS with topical AG26 (E4 at 0.06%).
The day prior to wounding (day −1), all the animals were weighed and anaesthetised using oxygen and isoflurane (flow rate 1.25-2 L with 2-2.5% isoflurane depending on clinical signs). Animals were shaved and dorsal areas prepped. Wound positions (2 wounds) were marked on the dorsum of each animal. Animals received a first subcutaneous injection of 2 μg K. pneumoniae-derived LPS diluted in DPBS (1 μg per wound: Sigma Aldrich, UK: L4268) at the wound site, except the double placebo group that received DPBS only. A thin layer of EstroGel, AG24, AG25, AG26 or placebo were then applied to the dorsum of each animal, measured as 60 μl total (30 μl/wound). […]

[3] = test system: LPS-induced delayed wound healing mice model; experiment: In vivo LPS model, single or repeated administration: wound histology at day 3; settings: single administration
Excerpt: The in vivo LPS treatment protocol (delayed wound healing model) as presented in example 4 has been repeated with the following groups of animals: • Double placebo group (untreated control). • LPS control (LPS, placebo treatment). • LPS with topical EstroGel (estradiol gel, contains 0.06% 17β-estradiol as hemihydrate in a hydro-alcoholic gel), repeated administration for 4 days. • LPS with topical AG26 (E4 at 0.06%), single administration. • LPS with topical AG26 (E4 at 0.06%), repeated administration for 4 days. • LPS with topical AG28 (E4 at 0.06%), single administration. • LPS with topical AG28 (E4 at 0.06%), repeated administration for 4 days. On day 0 only (single administration), or on days −1, 0, 1 and 2 (repeated administration), topical EstroGel. AG26. AG28 or corresponding placebo was applied in a thin layer over the top of the wounds (60 μl total: 30 μl/wound) during observations. On day 3, mice were humanely culled via rising concentration of CO2 and cervical dislocation. Uteri as well as non-wounded and wound tissue samples were processed as described under example 4. […] Next, we evaluated wound closure from histological samples (FIG. 13). Histological sections were subjected to K14 immunohistochemistry to visualise the newly forming epidermis.

[4] = test system: wound expression of M1 (TNF-α and IL1-β) and M2 (Fizz1 and Ym1) markers; experiment: In vivo LPS model: qPCR of M1 and M2 markers in wound tissue RNA; set-up: species or system mice; settings: versus LPS/PBO control
Excerpt: Female wild-type (C57BL/6J) 8 weeks old mice were split into six groups (6 animals per experimental group): • Double placebo control (no LPS, placebo treatment), • LPS control (LPS, placebo treatment), • LPS with topical EstroGel (estradiol gel, contains 0.06% 17β-estradiol as hemihydrate in a hydro-alcoholic gel), • LPS with topical AG24 (E4 at 0.5%), • LPS with topical AG25 (E4 at 0.22%), • LPS with topical AG26 (E4 at 0.06%). The day prior to wounding (day -1), all the animals were weighed and anaesthetised using oxygen and isoflurane (flow rate 1.25-2 L with 2-2.5% isoflurane depending on clinical signs). Animals were shaved and dorsal areas prepped. Wound positions (2 wounds) were marked on the dorsum of each animal. […] A thin layer of EstroGel, AG24, AG25, AG26 or placebo were then applied to the dorsum of each animal, measured as 60 μl total (30 μl/wound). […] For isolation of RNA and quantitative real time PCR murine macrophages were collected in Trizol and RNA was isolated using a Trizol plus RNA isolation kit (Invitrogen. Thermo Fisher) according to the manufacturer's instructions. […] Quantitative real-time PCR was carried out using 2×Takyon SYBR Green mastermix and a CFX Connect thermocycler. […]

Compound	concentration of optimal stimulation of fibroblast scratch wound closure [1]	scratch closure ([1]; 10^−7M)	scratch closure compared to vehicle control ([1]; 10^−6M)	scratch closure compared to vehicle control ([1]; 10^−7M) [%]	scratch closure compared to vehicle control ([1]; 10^−9M)	scratch closure compared to vehicle control ([1]; 10^−8M) [%]	uterine weight and morphology [2]	numbers of wound neutrophils [3]	wound M1 marker expression (TNF-α, IL1-β) [4]	wound M2 marker expression (Fizz1, Ym1) [4]
C[C@]12CC[C@@H]3c4ccc(O)cc4CC[C@H]3[C@@H]1CC[C@@H]2O [Formulation E2, 17β-estradiol, reference compound]	10^−8 M	promoted scratch closure	no difference in closure was observed	141	no difference in closure was observed					
C[C@]12CC[C@@H]3c4ccc(O)cc4CC[C@H]3[C@@H]1[C@@H](O)[C@@H](O)[C@@H]2O [Formulation E4, 1,3,5 (10)-estratrien-3,15alpha, 16alpha, 17beta-tetrol]	10^−8 M	promoted scratch closure; also recorded: greatest promotion	142%	147		152	affects uterine weight in a dose-dependent manner	reduced numbers of wound neutrophils	reduced M1 marker expression	increased M2 marker expression
